In US8242117B2, “5-membered heterocycle-based p38 kinase inhibitors” (Novartis AG, priority 2003, dated 2012):

Each compound was assayed against T1, p38α kinase (Homo sapiens, UniProt Q16539) (assay: p38α assay (ADP release coupled to NADH oxidation)). Conditions: 60 min preincubation, 0.15 mM ATP, 20 nM p38α kinase.
T1 construct: purchased Upstate
Type: biochemical
Method: cDNAs of human p38α and β were cloned by PCR. The α and β cDNAs were subcloned into DEST2 plasmid (Gateway, InVitrogen). His6-p38 fusion protein was expressed in E. coli and purified from bacterial lysates by affinity chromatography using Ni^+2-NTA-agarose. His6-p38 protein was activated by incubating with constitutively active MKK6. Active p38 was separated from MKK6 by affinity chromatography. Constitutively active MKK6 was generated in a manner similar to Raingeaud et al. [Mol. Cell. Biol., 1247-1255 (1996)].
The p38α assay employed is based on measurement of ADP released in the reaction of interest through NADH oxidation obtained by coupling with pyruvate kinase and lactate dehydrogenase reactions. The assays were performed in 384-well UV-plates. The final volume was 25 μL prepared from the addition of 2.5 μL compound dissolved in 10% DMSO, 17.5 μL of assay buffer and 5 μL of ATP. Assay buffer contains the following reagents to give final concentration in the assay: 25 mM HEPES, 20 mM 2-glycerophosphate, pH 7.6, 10 mM MgCl2, 0.1 mM sodium orthovanadate, 0.5 mM phosphoenolpyruvate, 0.12 mM NADH, 3.1 mg/ml LDH, 6.67 mg/ml pyruvate kinase, 0.25 mM peptide substrate, 2 mM DTT, 0.005% Tween 80 and 20 nM p38α kinase from Upstate. Test compounds are preincubated zith p38α kinase for 60 min and the reaction started by addition of ATP to 0.15 mM final concentration. Reaction rates were measured at 340 nm using SpectraMax plate-reading spectrophotometer for 10 min at 37° C. Inhibition data were analyzed by non-linear least-squares regression using SigmaPlot.

T1 sequence (Q16539 whole entry): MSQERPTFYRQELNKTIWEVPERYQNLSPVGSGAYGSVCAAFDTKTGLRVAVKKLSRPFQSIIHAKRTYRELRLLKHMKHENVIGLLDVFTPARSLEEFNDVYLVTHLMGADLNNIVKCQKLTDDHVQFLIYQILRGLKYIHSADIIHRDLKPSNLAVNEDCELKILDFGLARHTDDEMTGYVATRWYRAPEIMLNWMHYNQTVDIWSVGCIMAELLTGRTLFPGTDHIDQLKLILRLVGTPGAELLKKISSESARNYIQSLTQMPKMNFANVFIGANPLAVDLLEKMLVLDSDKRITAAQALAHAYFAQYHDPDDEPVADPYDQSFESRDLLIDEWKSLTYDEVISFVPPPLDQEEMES

Row | IC50 [nM] | Structure (SMILES)
1 | < 1000 | Cc1ccc(-c2nnc[nH]2)cc1-n1ncc(C(=O)c2ccccc2)c1N [Example 7, {5-amino-1-[2-methyl-5-(4H-[1,2,4]triazol-3-yl)-phenyl]-1H-pyrazol-4-yl}-phenyl-methanone]
2 | < 1000 | Cc1ccc(C(=O)NC2CC2)cc1-n1ncc(C(=O)NC2CCCCC2C)c1N (stereo not shown) [Example 128, 5-Amino-1-(5-cyclopropylcarbamoyl-2-methyl-phenyl)-1H-pyrazole-4-carboxylic acid (2-methyl-cyclohexyl)-amide]
3 | < 1000 | Cc1ccc(C(=O)NC2CC2)cc1-n1ncc(C(=O)c2cccc(CO)c2)c1N [Example 10, 3-[5-amino-4-(3-hydroxymethyl-benzoyl)-pyrazol-1-yl]-N-cyclopropyl-4-methyl-benzamide]
4 | < 1000 | Cc1ccc(C(=O)NC2CC2)cc1-n1cnc(C(=O)C2CCCCC2)c1N [Example 18, 3-(5-Amino-4-cyclohexanecarbonyl-imidazol-1-yl)-N-cyclopropyl-4-methyl-benzamide]
5 | < 1000 | Cc1ccc(C(=O)NC2CC2)cc1-n1ncc(C(=O)c2cccc(I)c2)c1N [Example 6, 3-[5-amino-4-(3-iodo-benzoyl)-pyrazol-1-yl]-N-cyclopropyl-4-methyl-benzamide]
6 | 1000 to 10000 | Cc1ccc(C(=O)O)cc1-n1ncc(C(=O)c2cccc(I)c2)c1N [Example 5, 3-[5-amino-4-(3-iodo-benzoyl)-pyrazol-1-yl]-4-methyl-benzoic acid]
7 | < 1000 | CONC(=O)c1ccc(C)c(-n2ncc(C(=O)c3cccc(I)c3)c2N)c1 [Example 1, 3-[5-Amino-4-(3-iodo-benzoyl)-pyrazol-1-yl]-N-methoxy-4-methyl-benzamide]
8 | < 1000 | Cc1ccc(C(=O)NC2CC2)cc1-n1ncc(C(=O)c2cccc(-c3nnco3)c2)c1N [Example 53, 3-[5-Amino-4-(3-[1,3,4]oxadiazol-2-yl-benzoyl)-pyrazol-1-yl]-N-cyclopropyl-4-methylbenzamide]
9 | < 1000 | Cc1ccc(C(=O)NC2CC2)cc1-n1ncc(C(=O)c2cccc(C=O)c2)c1N [Example 9, 3-[5-amino-4-(3-formyl-benzoyl)-pyrazol-1-yl]-N-cyclopropyl-4-methyl-benzamide]
10 | < 1000 | Cc1ccc(C(=O)NC2CC2)cc1-n1cnc(C(=O)c2ccccn2)c1N [Example 76, 3-[5-Amino-4-(pyridine-2-carbonyl)-imidazol-1-yl]-N-cyclopropyl-4-methyl-benzamide]
11 | < 1000 | Cc1ccc(C(=O)NC2CC2)cc1-n1ncc(C(=O)c2cccc(OCC(O)CO)c2)c1N (stereo not shown) [Example 171, 3-{5-Amino-4-[3-(2,3-dihydroxy-propoxy)-benzoyl]-pyrazol-1-yl}-N-cyclopropyl-4-methylbenzamide]
12 | < 1000 | Cc1ccc(C(=O)NC2CC2)cc1-n1ncc(C(=O)c2cccc(C3OCCO3)c2)c1N [Example 8, 3-[5-amino-4-(3-[1,3]dioxolan-2-yl-benzoyl)-pyrazol-1-yl]-N-cyclopropyl-4-methyl-benzamide]
13 | < 1000 | Cc1ccc(C(=O)NC2CC2)cc1-n1nc(OC2CCN(C(=O)OC(C)(C)C)CC2)c(C(=O)c2ccccc2)c1N [Example 34, 4-[5-amino-4-benzoyl-1-(5-cyclopropylcarbamoyl-2-methyl-phenyl)-1H-pyrazol-3-yloxy]-piperidine-1-carboxylic acid tert-butyl ester]
14 | < 1000 | Cc1ccc(C(=O)NC2CC2)cc1-n1ncc(C(=O)NC2CCc3ccccc32)c1N (stereo not shown) [Example 135, 5-Amino-1-(5-cyclopropylcarbamoyl-2-methyl-phenyl)-1H-pyrazole-4-carboxylic acid indan-1-ylamide]
15 | < 1000 | Cc1ccc(C(=O)NC2CC2)cc1-n1ncc(C(=O)c2cccc(C#N)c2)c1N [Example 52, 3-[5-Amino-4-(3-cyanobenzoyl)-pyrazol-1-yl]-N-cyclopropyl-4-methylbenzamide]
16 | < 1000 | CCOC(=O)c1c(C)nn(-c2cc(C(=O)NC3CC3)ccc2C)c1N [Example 49, 5-Amino-1-(5-cyclopropylcarbamoyl-2-methyl-phenyl)-3-methyl-1H-pyrazole-4-carboxylic acid ethyl ester]
17 | < 1000 | COc1nn(-c2cc(C(=O)NC3CC3)ccc2C)c(N)c1C(=O)c1ccccc1 [Example 30, 3-(5-amino-4-benzoyl-3-methoxy-pyrazol-1-yl)-N-cyclopropyl-4-methyl-benzamide]
18 | < 1000 | CCOC(=O)c1c(OCC(=O)NCc2cccc(Cl)c2)nn(-c2cc(C(=O)NC3CC3)ccc2C)c1N [Example 50, 5-Amino-3-[(3-chloro-benzylcarbamoyl)-methoxy]-1-(5-cyclopropylcarbamoyl-2-methyl-phenyl)-1H-pyrazole-4-carboxylic acid ethyl ester]
19 | < 1000 | CONC(=O)c1ccc(C)c(-n2ncc(C(=O)c3ccccc3)c2N)c1 [Example 2, 3-(5-Amino-4-benzoyl-pyrazol-1-yl)-N-methoxy-4-methyl-benzamide]
20 | < 1000 | CCOC(=O)c1cnn(-c2cc(C(=O)NC3CC3)ccc2C)c1N [Example 48, 5-Amino-1-(5-cyclopropylcarbamoyl-2-methyl-phenyl)-1H-pyrazole-4-carboxylic acid ethyl ester]
21 | < 1000 | Cc1ccc(C(=O)NC2CC2)cc1-n1ncc(C(=O)c2ccccc2)c1N [Example 4, 3-(5-amino-4-benzoyl-pyrazol-1-yl)-N-cyclopropyl-4-methyl-benzamide]
22 | < 1000 | Cc1ccc(C(=O)NC2CC2)cc1-n1cnc(C(=O)c2ccc3c(c2)OCO3)c1N [Example 87, 3-[5-Amino-4-(benzo[1,3]dioxole-5-carbonyl)-imidazol-1-yl]-N-cyclopropyl-4-methyl-benzamide]
23 | < 1000 | Cc1ccc(C(=O)NC2CC2)cc1-n1nc(OCCOCc2ccccc2)c(C(=O)c2ccccc2)c1N [Example 33, 3-[5-amino-4-benzoyl-3-(2-benzyloxy-ethoxy)-pyrazol-1-yl]-N-cyclopropyl-4-methyl-benzamide]
24 | < 1000 | Cc1ccc(C(=O)NC2CC2)cc1-n1cnc(C(=O)C2CCOCC2)c1N [Example 29, 3-[5-Amino-4-(tetrahydro-pyran-4-carbonyl)-imidazol-1-yl]-N-cyclopropyl-4-methyl-benzamide]
25 | 1000 to 10000 | Cc1ccc(C(=O)O)cc1-n1ncc(C(=O)c2ccccc2)c1N [Example 3, 3-(5-amino-4-benzoyl-pyrazol-1-yl)-4-methyl-benzoic acid]
